Data from patent EP0123546A2, “Compositions for treating inflammation and eliciting analgesia” (Norwich Eaton Pharmaceuticals, Inc., priority 1983, dated 1984).
Where two headings read alike, the source gives them in different places.

Key:
[1] = tested on: ultraviolet light-induced cutaneous erythema; assay: ultraviolet light-induced cutaneous erythema test (Winder et al.); assay type: in vivo, guinea pigs; details: Cavia porcellus, po; linear regression of log dose versus percent protection, combined 2, 3 and 4 hour readings
Experimental: Guinea pigs weighing 280-715 g were fasted 24 hours and the dorsal-lateral surface was cleared by clipping and chemical depilation. The animals were placed in an opaque rubber glove with three circular, 6 mm punched holes. Exposure for 90 seconds at a distance of 7 cm to a Model 30620 Hanovia ultraviolet lamp with a Type 616A bulb and Type 6540-001 filter produced the erythema. (I) in methylcellulose was administered orally one hour before irradiation to groups of 5 animals at doses from 5 to 153 mg/kg at a rate of 10 mI/kg. Erythema was scored at 2, 3 and 4 hours post-irradiation as 0 (no redness), 0.5 (slight redness) or 1 (full red circle). Percent protection was calculated with reference to a vehicle-dosed control group of 5 animals treated on the same day. ED50 values were estimated by linear regression analysis of the log dose versus percent protection (combined 2, 3 and 4 hour readings) relationship.

[2] = tested on: carrageenin-induced rat paw edema; assay: carrageenin-induced rat paw edema method (Winter et al.); assay type: in vivo, male Wistar rats; details: for protection: 300 mg/kg p.o.
Text: The compound 5-(4-chlorophenyl)-2-furancarboxylic acid (I) [drawing 1] and its preparation have been described in the chemical literature (Mathur et al. , J. Chem. Soc., 1961 (Part 2), 2576-2578). It has now been discovered that this compound exerts impressive anti-inflammatory activity using the well recognized carrageenin- induced rat paw edema method described by Winter et al. in Proc. Soc. […] Positive results secured under this method are correlative to successful performance in other species where the need for anti-inflammatory medication is present.
In accordance with the aforementioned -method, fasted male Wistar rats, 100-125 g., were dosed in groups of 3 with […] p.o. of (1) in 0.5% (wlv) methylcellulose. A control group of 20 rats (groups of 5 rats each combined from 4 separate experiments) received methylcellulose only at the same dose rate of 10 ml/kg. One hour later 0.05 ml of 1% (w/v) carrageenin was injected into the plantar region of the right hindpaw of each rat, using a 27-gauge 1/2-inch needle. Before oral dosing and at 4 and 6 hours post-carrageenin, hindpaw volumes were determined by immersing the feet in a liquid mercury bath to the level of the anatomical hairline. Displacement of the mercury was determined as a pressure difference, measured through a Statham venous pressure transducer coupled to a Grass Model 7 polygraph. The polygraph was calibrated such that a 1 ml displacement produced a 1 mm pen deflection. Two consecutive measurements were taken in all cases and the mean value used in calculations. Calculation of the ED50 value was done as described below for the mouse writhing data. Mean percent protection increased at 4 hours from 0 to 3 mg/kg p.o. to 51.5 at 100 mg/kg p.o. and at 6 hours from 16.6 at 3 mg/kg to 39.9 at 100 mg/kg in a dose-dependent manner. The high dose of 300 mg/kg p.o. gave 34.9 and 23.2% protection at 4 and 6 hours, respectively.

[3] = tested on: phenylquinone-induced writhing; assay: antagonism of phenylquinone-induced writhing (Hendershot and Forsaith); assay type: in vivo, male albino mice; details: for Mean percent protection: one hour before phenylquinone i.p.; for ED50: Mus musculus, read-out: dose giving 50% protection (ED50)
Experimental: Groups of 10 fasted male albino mice, 14-28 g. were dosed by gavage with 18-1,000 mg/kg (I) in 0.5% (w/v) methylcellulose or with methylcellulose solution alone. One hour later each mouse received 10 ml/kg of 0.02% phenylquinone in 5% ethanol intraperitoneally. The characteristic writhing responses were observed and counted from 5 to 15 minutes after phenylquinone administration.

[4] = tested on: ultraviolet light-induced cutaneous erythema; details: similar evaluation; Goldenberg et al., op cit.; cited from earlier work
[5] = tested on: carrageenin-induced rat paw edema; details: same test; Goldenberg et al., Arch. Int. Pharmacodyn. Ther., 243:331-350, 1980; cited from earlier work

| SMILES | ED50 [1] [mg/kg] | Mean percent protection ([2]; 3 mg/kg p.o., 4 hours post-carrageenin) [%] | Mean percent protection ([2]; 3 mg/kg p.o., 6 hours post-carrageenin) [%] | Mean percent protection ([2]; 100 mg/kg p.o., 4 hours post-carrageenin) [%] | Mean percent protection ([2]; 100 mg/kg p.o., 6 hours post-carrageenin) [%] | protection ([2]; 4 hours post-carrageenin) [%] | protection ([2]; 6 hours post-carrageenin) [%] | ED50 ([2]; Rattus norvegicus, 4 hours post-carrageenin, oral dose 1 hour before carrageenin) [mg/kg] | Mean percent protection ([3]; 18 mg/kg by gavage) [%] | Mean percent protection ([3]; 1,000 mg/kg by gavage) [%] | ED50 ([3]; linear regression of log oral dose versus percent protection) [mg/kg] | ED50 estimate [4] [mg/kg p.o.] | ED50 value [5] [mg/kg p.o.] | ED50 ([3]; po) [mg/kg] |
| --- | --- | --- | --- | --- | --- | --- | --- | --- | --- | --- | --- | --- | --- | --- |
| O=C(O)c1ccc(-c2ccc(Cl)cc2)o1 [(I), 5-(4-chlorophenyl)-2-furancarboxylic acid] | 24 | 0 | 16.6 | 51.5 | 39.9 | 34.9 | 23.2 | 84.2 | 13.1 | 92.4 | 213 | – | – | – |
| CC(=O)Oc1ccccc1C(=O)O [aspirin] | – | – | – | – | – | – | – | – | – | – | – | 49.5 | 155 | 182 |
